Reference: patent US6004957A, “Sulfonamide inhibitors of aspartyl protease” (Vertex Pharmaceuticals, Incorporated, priority 1998, dated 1999)
Where a name gives a salt, the structure may show the parent alone.

The compounds below were run on HIVIIIb in CCRM-CEM cells (assay: Anti-viral potency in CCRM-CEM cells acutely infected with HIVIIIb (method of Meek et al.), extracellular p24 antigen). Conditions: Human immunodeficiency virus 1, HIV replication, Table VIII, read-out: IC90 Range.
Format: cell-based, HIV-1
Outline: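 Compounds in DMSO were added to CCRM-CEM cells (CD4+ human T-cell lymphoma) acutely infected with HIVIIIb following Meek et al. Inhibition of viral replication was determined from extracellular p24 antigen concentration measured by enzyme immunoassay.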

**Q.** `CC(=O)Nc1ccc(S(=O)(=O)N(CC2CCCC2)C[C@@H](O)[C@H](Cc2ccccc2)NC(=O)O[C@H]2CCOC2)cc1` [Compound 125, N-(4-(Cyclopentylmethyl-((2 syn,3S)-2-hydroxy-4-phenyl-3-((S)-tetrahydrofuran-3-yloxycarbonylamino)-butyl)-sulfamoyl)-phenyl)-acetamide] was tested. Which IC90 did it give?
**A.** 101 to 1000 nM

**Q.** How did the IC90 turn out when `C=C(C)CN(C[C@@H](O)[C@H](Cc1ccccc1)NC(=O)O[C@H]1CCOC1)S(=O)(=O)c1ccc(F)cc1` [Compound 135] was run?
**A.** 1000 to 10000 nM

**Q.** `CC(C)CN(C[C@@H](O)[C@H](Cc1ccccc1)NC(=O)O[C@H]1CCOC1)S(=O)(=O)c1cccc(Cl)c1` [Compound 138, 3-Chloro-N-((2 syn,3S)-2-hydroxy-4-phenyl-3-((S)-tetrahydrofuran-3-yloxycarbonylamino)-butyl)-N-isobutyl-benzenesulfonamide] was tested. Which IC90 did it give?
**A.** 101 to 1000 nM

**Q.** `O=C1N[C@H](COC(=O)N[C@@H](Cc2ccccc2)[C@H](O)CN(CC2CCCC2)S(=O)(=O)c2ccc(Cl)cc2)CO1` [Compound 139, 4Chloro-N-cyclopentylmethyl-N-(2-(syn)-hydroxy-3-((2-oxazolidon-4-(S)-yl-methyl)-oxycarbonylamino)-4-phenyl-butyl)-benzenesulfonamide] was tested. Which IC90 did it give?
**A.** 101 to 1000 nM

**Q.** How did the IC90 turn out when `COc1ccc(S(=O)(=O)N(CC2CCCC2)C[C@@H](O)[C@H](Cc2ccccc2)NC(=O)O[C@H]2CCOC2)cc1` [Compound 140, N-cyclopentylmethyl-N-((2 syn,3S)-2-hydroxy-4-phenyl-3-((S)-tetrahydrofuran-3-yloxycarbonylamino)-butyl)-4-methoxy-benzenesulfonamide] was run?
**A.** < 100 nM

**Q.** Which IC90 does the source give for `C=CCOC(=O)N[C@@H](Cc1ccccc1)[C@H](O)CN(CC1CCCC1)S(=O)(=O)c1ccc(OC)cc1` [Compound 141, N-((3-allyloxycarbonylamino)-(2 syn,3S)-2-hydroxy-4-phenyl-butyl)-N-cyclopentylmethyl-4-methoxy-benzenesulfonamide] here?
**A.** 101 to 1000 nM

**Q.** `COc1ccc(S(=O)(=O)N(CC2CCCC2)C[C@@H](O)[C@H](Cc2ccccc2)NC(=O)OCc2cccnc2)cc1` [Compound 142] was tested. Which IC90 did it give?
**A.** < 100 nM

**Q.** With `CC(C)CN(C[C@@H](O)[C@H](Cc1ccccc1)NC(=O)O[C@H]1CCOC1)S(=O)(=O)c1cccnc1` [Compound 144, Pyridine-3-sulfonic acid ((2 syn,3S)-2-hydroxy-4-phenyl-3-((S)-tetrahydrofuran-3-yloxycarbonylamino)-butyl)-isobutyl-amide, trifluoroacetic acid salt] as the compound, how does the IC90 read?
**A.** 101 to 1000 nM

**Q.** `CC(C)CN(C[C@@H](O)[C@H](Cc1ccccc1)NC(=O)O[C@H]1CCOC1)S(=O)(=O)c1ccc(-c2ccon2)s1` [Compound 145, 5-Isoxazol-3-yl-thiophene-2-sulfonic acid ((2 syn,3S)-2-hydroxy-4-phenyl-3-((S)-tetrahydrofuran-3-yloxycarbonylamino)-butyl)-isobutyl-amide] was tested. Which IC90 did it give?
**A.** 101 to 1000 nM

**Q.** How did the IC90 turn out when `C=CCOC(=O)N[C@@H](Cc1ccccc1)[C@H](O)CN(CC1CCCC1)S(=O)(=O)c1ccc(NC(C)=O)cc1` [Compound 146, N-(4-((3-(Allyloxycarbonylamino)-(2 syn,3S)-2-hydroxy-4-phenyl-butyl)-cyclopentylmethylsulfamoyl)-phenyl)-acetamide] was run?
**A.** 101 to 1000 nM

**Q.** For `CC(=O)Nc1ccc(S(=O)(=O)N(CC2CCCC2)C[C@@H](O)[C@H](Cc2ccccc2)NC(=O)OCc2cccnc2)cc1` [Compound 147, N-(4-(Cyclopentylmethyl-((2 syn,3S)-2-hydroxy-4-phenyl-3-(pyridin-3-yl-methoxycarbonylamino)-butyl)-sulfamoyl)-phenyl)-acetamide], which IC90 is on record?
**A.** 101 to 1000 nM

**Q.** For `O=C(N[C@@H](Cc1ccccc1)[C@H](O)CN(CC1CCCC1)S(=O)(=O)c1ccccc1)O[C@H]1CCOC1` [Compound 148, N-Cyclopentylmethyl-N-((2 syn,3S)-2-hydroxy-4-phenyl-3-((S)-tetrahydrofuran-3-yloxycarbonylamino)-butyl)-benzenesulfonamide], which IC90 is on record?
**A.** < 100 nM

**Q.** `O=C(N[C@@H](Cc1ccccc1)[C@H](O)CN(CC1CCCC1)S(=O)(=O)c1cccnc1)O[C@H]1CCOC1` [Compound 149, Pyridine-3-sulfonic acid cyclopentylmethyl-((2 syn,3S)-2-hydroxy-4-phenyl-3-((S)-tetrahydrofuran-3-yloxycarbonylamino)-butyl)-amide] was tested. Which IC90 did it give?
**A.** 101 to 1000 nM

**Q.** For `CC(C)CN(C[C@@H](O)[C@H](Cc1ccccc1)NC(=O)O[C@H]1CCOC1)S(=O)(=O)N1CCCCC1` [Compound 150, Piperidine-1-sulfonic acid ((2 syn,3S)-2-hydroxy-4-phenyl-3-((S)-tetrahydrofuran-3-yloxycarbonylamino)-butyl)-isobutyl-amide], which IC90 is on record?
**A.** 101 to 1000 nM

**Q.** For `O=C(N[C@@H](Cc1ccccc1)[C@H](O)CN(CC1CCCC1)S(=O)(=O)c1ccc(OC(F)(F)F)cc1)O[C@H]1CCOC1` [Compound 151], which IC90 is on record?
**A.** 1000 to 10000 nM

**Q.** For `C=C(COC)COC(=O)N[C@@H](Cc1ccccc1)[C@H](O)CN(CC(C)C)S(=O)(=O)c1ccc(NC(C)=O)cc1` [Compound 155, N-4-((2-(syn)-Hydroxy-3-((2-methoxymethyl-allyloxycarbonylamino)-4-(S)-phenyl-butyl)-isobutyl-sulfamoyl)-phenyl)-acetamide], which IC90 is on record?
**A.** 101 to 1000 nM

**Q.** `C=CCOC(=O)N[C@@H](Cc1ccccc1)[C@H](O)CN(CC1CCCC1)S(=O)(=O)c1ccc2c(c1)CCN2C(C)=O` [Compound 156] was tested. Which IC90 did it give?
**A.** 101 to 1000 nM

**Q.** `COc1ccc(S(=O)(=O)N(CC2CCCCC2)C[C@@H](O)[C@H](Cc2ccccc2)NC(=O)O[C@H]2CCOC2)cc1` [Compound 158, N-Cyclohexylmethyl-N-((2 syn,3S)-2-hydroxy-4-phenyl-3-((S)-tetrahydrofuran-3-yloxycarbonylamino)-butyl)-4-methoxy-benzenesulfonamide] was tested. Which IC90 did it give?
**A.** < 100 nM

**Q.** With `O=C(N[C@@H](Cc1ccccc1)[C@H](O)CN(CC1CCCCC1)S(=O)(=O)c1ccc(F)cc1)O[C@H]1CCOC1` [Compound 159, N-Cyclohexylmethyl-4-fluoro-N-((2 syn,3S)-2-hydroxy-4-phenyl-3-((S)-tetrahydrofuran-3-yloxycarbonylamino)-butyl)-benzenesulfonamide] as the compound, how does the IC90 read?
**A.** 101 to 1000 nM

**Q.** For `CC(=O)Nc1ccc(S(=O)(=O)N(CC2CCCCC2)C[C@@H](O)[C@H](Cc2ccccc2)NC(=O)O[C@H]2CCOC2)cc1` [Compound 160, N-(4-(Cyclohexylmethyl)-((2 syn,3S)-2-hydroxy-4-phenyl-3-((S)-tetrahydrofuran-3-yloxycarbonylamino)-butyl)-sulfamoyl-phenyl)-acetamide], which IC90 is on record?
**A.** < 100 nM

**Q.** With `C=C(COC)COC(=O)N[C@@H](Cc1ccccc1)[C@H](O)CN(CC1CCCC1)S(=O)(=O)c1ccc(OC)cc1` [Compound 162] as the compound, how does the IC90 read?
**A.** 1000 to 10000 nM

**Q.** `COc1ccc(S(=O)(=O)N(CC(C)C)C[C@@H](O)[C@H](Cc2ccccc2)NC(=O)OCc2ccncc2)cc1` [Compound 163, N-((2 syn,3S)-2-Hydroxy-4-phenyl-3-(pyridin-4-yl-methoxycarbonylamino)-butyl)-N-isobutyl-4-methoxy-benzenesulfonamide] was tested. Which IC90 did it give?
**A.** 101 to 1000 nM

**Q.** `Cc1ccc(S(=O)(=O)N(CC(C)C)C[C@@H](O)[C@H](Cc2ccccc2)NC(=O)O[C@H]2CCOC2)cc1` [Compound 165, N-((2 syn,3S)-2-Hydroxy-4-phenyl-3-((syn)-tetrahydrofuran-3-yloxycarbonylamino)-butyl)-N-isobutyl-4-methyl-benzenesulfonamide] was tested. Which IC90 did it give?
**A.** 101 to 1000 nM

**Q.** How did the IC90 turn out when `O=C(N[C@@H](Cc1ccccc1)[C@H](O)CN(CC1CCCC1)S(=O)(=O)c1ccc(O)cc1)OCc1cccnc1` [Compound 166, N-cyclopentylmethyl-4-hydroxy-N-((2 syn,3S)-2-hydroxy-4-phenyl-3-(pyridin-3-yl-methoxycarbonylamino)-butyl)-benzenesulfonamide] was run?
**A.** < 100 nM

**Q.** How did the IC90 turn out when `CC(C)CN(C[C@@H](O)[C@H](Cc1ccccc1)NC(=O)O[C@H]1CCOC1)S(=O)(=O)c1ccc([N+](=O)[O-])cc1` [Compound 167, N-((2 syn,3S)-2-Hydroxy-4-phenyl-3-((S)-tetrahydrofuran-3-yloxycarbonylamino)-butyl)-N-isobutyl-4-nitro-benzenesulfonamide] was run?
**A.** 101 to 1000 nM

**Q.** With `O=C(N[C@@H](Cc1ccccc1)[C@H](O)CN(CC1CCCC1)S(=O)(=O)c1ccc(O)cc1)O[C@H]1CCOC1` [Compound 169, N-Cyclopentylmethyl-4-hydroxy-N-((2 syn,3S)-2-hydroxy-4-phenyl-3-((S)-tetrahydrofuran-3-yloxycarbonylamino)-butyl)-benzenesulfonamide] as the compound, how does the IC90 read?
**A.** < 100 nM

**Q.** Which IC90 does the source give for `O=C(N[C@@H](Cc1ccccc1)[C@H](O)CN(CC1CCCC1)S(=O)(=O)c1ccc([N+](=O)[O-])cc1)O[C@H]1CCOC1` [Compound 170, N-Cyclopentylmethyl-N-((2 syn,3S)-2-hydroxy-4-phenyl-3-((S)-tetrahydrofuran-3-yloxycarbonylamino)-butyl)-4-nitro-benezensulfonamide] here?
**A.** 101 to 1000 nM

**Q.** For `Nc1ccc(S(=O)(=O)N(CC2CCCC2)C[C@@H](O)[C@H](Cc2ccccc2)NC(=O)O[C@H]2CCOC2)cc1` [Compound 171, 4-Amino-N-cyclopentylmethyl-N-((2 syn,3S)-2-hydroxy-4-phenyl-3-((S)-tetrahydrofuran-3-yloxycarbonylamino)-butyl)-banzenesulfonamide], which IC90 is on record?
**A.** < 100 nM

**Q.** How did the IC90 turn out when `Nc1ccc(S(=O)(=O)N(CC2CCCC2)C[C@@H](O)[C@H](Cc2ccccc2)NC(=O)O[C@H]2CCOC2)c(N)c1` [Compound 173, 2,4-Diamino-N-cyclopentylmethyl-N-((2 syn,3S)-2-hydroxy-4-phenyl-3-((S)-tetrahydrofuran-3-yloxycarbonylamino)-butyl)-benzenesulfonamide] was run?
**A.** < 100 nM

**Q.** How did the IC90 turn out when `CC(C)CN(C[C@@H](O)[C@H](Cc1ccccc1)NC(=O)O[C@H]1CCOC1)S(=O)(=O)c1ccc(O)cc1` [Compound 175] was run?
**A.** < 100 nM

**Q.** `O=C(N[C@@H](Cc1ccccc1)[C@H](O)CN(CC1CCCC1)S(=O)(=O)c1ccc(F)cc1)O[C@H]1CCOC1` [Compound 182, N-Cyclopentylmethyl-4-fluoro-N-((2 syn,3S)-2-hydroxy-4-phenyl-3-((S)-tetrahydrofuran-3-yloxycarbonylamino)-butyl)-benzenesulfonamide] was tested. Which IC90 did it give?
**A.** 101 to 1000 nM
